Where “and” joins values, the source holds several entries; their conditions need not be identical. Identical values can stand only once. Like-named read-outs stand apart in the source and are kept apart here.
Biological target: T1, SARS CoV-2 M^pro (Severe acute respiratory syndrome coronavirus 2, UniProt P0DTD1)
T1 construct: The main protease (M^pro) is a part of the polyprotein chain, also named 3C-like protease; SUMO (cleaved yes); His; made in house; host or cells: Escherichia coli BL21(DE3)
Experiment: biochemical
Format: biochemical
Conditions: for inhibition at 80 µM: read-out: Inhibition%(80μM)

SMILES: O=C1O[C@H]2[C@@H]3OC(=O)c4cc(O)c(O)c(O)c4-c4c(O)c(O)c5oc(=O)c6c(c(O)c(O)c7oc(=O)c4c5c76)-c4c(cc(O)c(O)c4O)C(=O)OC[C@H]3OC(O)[C@@H]2OC(=O)c2cc(O)c(O)c(O)c2-c2c1cc(O)c(O)c2O (mixture of isomers) [Punicalagin]
- Inhibition%(80μM): 73.51% and 73.40%
- inhibition at 80 µM: 75%

SMILES: CC(C)=CCC(O)C1=CC(=O)c2c(O)ccc(O)c2C1=O (racemic) [(±)-Shikonin]
- Inhibition%(80μM): 95.04% and 93.71%
- inhibition at 80 µM: 87.6%

SMILES: O=C(/C=C/c1ccc(O)c(O)c1)O[C@@H]1C[C@@](OC(=O)/C=C/c2ccc(O)c(O)c2)(C(=O)O)C[C@@H](O)[C@@H]1O [1,5-Dicaffeoylquinic Acid]
- Inhibition%(80μM): 75.61% and 71.24%
- inhibition at 80 µM: 74.6%

SMILES: CC(=O)O[C@H]1[C@H](OCCc2ccc(O)c(O)c2)O[C@H](CO)[C@@H](OC(=O)/C=C/c2ccc(O)c(O)c2)[C@@H]1O[C@@H]1O[C@@H](C)[C@H](O)[C@@H](O)[C@H]1O [2'-Acetylacteoside]
- Inhibition%(80μM): 93.37% and 90.77%
- inhibition at 80 µM: 90.6%

SMILES: CC1=CC(=O)C=C(C)C1=O [2,6-Dimethylbenzoquinone]
- Inhibition%(80μM): 101.34% and 101.15%
- inhibition at 80 µM: 102%

SMILES: O=c1c(O)c(-c2ccc(O)c(O)c2)oc2cc(O)c(O)c(O)c12 [3,3',4',5,6,7-Hexahydroxyflavone]
- Inhibition%(80μM): 99.40% and 98.98% and 98.10%

SMILES: O=C(O)Cc1ccc(O)c(O)c1 [3,4-Dihydroxyphenylacetic Acid]
- Inhibition%(80μM): 71.59% and 70.57%
- inhibition at 80 µM: 72.4%

SMILES: OCCc1ccc(O)c(O)c1 [3,4-Dihydroxyphenylethanol]
- Inhibition%(80μM): 102.33% and 102.25%
- inhibition at 80 µM: 101%

SMILES: CC(=O)OC(C)(C)CC(=O)O[C@@H](CC=C(C)C)C1=CC(=O)c2c(O)ccc(O)c2C1=O [3-(Acetyloxy)-3-methylbutanoic acid (1S)-1-(1,4-dihydro-5,8-dihydroxy-1,4-dioxo-2-naphthalenyl)-4-methyl-3-pentenyl ester]
- Inhibition%(80μM): 93.12% and 92.58% and 93.44%

SMILES: Cc1ccc(O)c(O)c1 [4-Methylcatechol]
- Inhibition%(80μM): 102.51% and 102.92%
- inhibition at 80 µM: 103%

SMILES: Cc1cc(=O)oc2cc(O)c(O)cc12 [4-Methylesculetin]
- Inhibition%(80μM): 77.57%
- inhibition at 80 µM (80 μM compound, second value column of Table S2): 79.9%
- inhibition at 80 µM: 79.1%

SMILES: COC(=O)[C@@H](Cc1ccc(O)c(O)c1)OC(=O)[C@@H]1c2c(/C=C/C(=O)O[C@H](Cc3ccc(O)c(O)c3)C(=O)O)ccc(O)c2O[C@H]1c1ccc(O)c(O)c1 [9'-Methyl Lithospermate B]
- Inhibition%(80μM): 72.67% and 74.36%
- inhibition at 80 µM: 73.6%

SMILES: CCCCCCCC/C=C\CCCCCCCCC(=O)O [10Z-Nonadecenoic acid]
- Inhibition%(80μM): 126.52% and 101.02% and 101.53%

SMILES: OC[C@]1(O)COc2cc(O)ccc2-c2cc(O)c(O)cc2C1 [(7S)-3,7,10,11-Tetrahydroxy-7,8-dihydro-6H-dibenzo[b,d]oxocin-7-methanol]
- Inhibition%(80μM): 101.15% and 101.14% and 101.45%

SMILES: O=C(O[C@@H]1Cc2c(O)cc(O)cc2O[C@@H]1c1cc(O)c(O)c(O)c1)c1cc(O)c(O)c(O)c1 [(-)-Epigallocatechin Gallate]
- Inhibition%(80μM): 85.53% and 79.02%
- inhibition at 80 µM: 82.6%

SMILES: CC(C)=CCC(OC(=O)C=C(C)C)C1=CC(=O)c2c(O)ccc(O)c2C1=O (stereo not drawn) [(β,β-Dimethylacryl)Shikonin]
- Inhibition%(80μM): 82.39% and 82.91% and 82.80%

SMILES: O=C(O[C@@H]1Cc2c(O)cc(O)cc2O[C@H]1c1cc(O)c(O)c(O)c1)c1cc(O)c(O)c(O)c1 [(−)–gallocatechin gallate, (-)-Gallocatechin Gallate]
- Inhibition%(80μM): 102.08% and 101.74%
- inhibition at 80 µM: 101%

SMILES: O=C(O)c1ccc2c(c1)C(=O)c1ccccc1C2=O [Anthraquinone-2-Carboxylic Acid]
- Inhibition%(80μM): 84.57%
- inhibition at 80 µM: 85.4%

SMILES: CCCCC/C=C\C/C=C\C/C=C\C/C=C\CCCC(=O)O [Arachidonic Acid]
- Inhibition%(80μM): 76.72% and 73.70%
- inhibition at 80 µM: 82.2%

SMILES: C[C@@H]1OC(O[C@@H]2[C@@H](O)[C@H](OCCc3ccc(O)c(O)c3)O[C@H](CO[C@@H]3OC[C@@H](O)[C@H](O)[C@H]3O)[C@H]2OC(=O)/C=C/c2ccc(O)c(O)c2)[C@H](O)[C@H](O)[C@H]1O (stereo partly drawn) [Arenarioside]
- Inhibition%(80μM): 99.86% and 99.31%
- inhibition at 80 µM: 99.1%

SMILES: O=C(O)[C@H]1O[C@@H](Oc2cc3oc(-c4ccccc4)cc(=O)c3c(O)c2O)[C@H](O)[C@@H](O)[C@@H]1O [Baicalin]
- Inhibition%(80μM): 72.02%
- inhibition at 80 µM: 77.5%

SMILES: Oc1ccc2c(c1)OC[C@]1(O)Cc3cc(O)c(O)cc3[C@H]21 [Brazilin]
- Inhibition%(80μM): 101.06% and 101.28%
- inhibition at 80 µM: 101%

SMILES: O=C(O)[C@H]1O[C@@H](Oc2cc3oc(-c4ccc(O)cc4)cc(=O)c3c(O)c2O)[C@H](O)[C@@H](O)[C@@H]1O [Breviscapin]
- Inhibition%(80μM): 78.06% and 77.78%
- inhibition at 80 µM: 66%

SMILES: CC(C)c1cc2c(c(O)c1O)[C@@]13CCCC(C)(C)[C@@H]1C[C@@H]2OC3=O [Carnosol]
- Inhibition%(80μM): 73.35% and 80.59%
- inhibition at 80 µM: 74.5%

SMILES: CC1=C(O)C(=O)C=C2C1=CC=C1[C@@]2(C)CC[C@@]2(C)[C@@H]3C[C@](C)(C(=O)O)CC[C@]3(C)CC[C@]12C [Celastrol]
- Inhibition%(80μM): 85.83% and 91.32%
- inhibition at 80 µM: 89.6%

SMILES: COc1ccc2c(c[n+](C)c3c4cc5c(cc4ccc23)OCO5)c1OC [Chelerythrine chloride]
- Inhibition%(80μM): 98.66% and 98.31% and 98.46%

SMILES: COc1ccc2c(c[n+](C)c3c4cc5c(cc4ccc23)OCO5)c1OC [Chelerythrine]
- Inhibition%(80μM): 98.97% and 99.51%
- inhibition at 80 µM: 99.4%

SMILES: O=C(O[C@@H]1O[C@@H]2COC(=O)c3cc(O)c(O)c(O)c3-c3c(cc(O)c(O)c3O)C(=O)O[C@H]([C@H]1O)[C@@H]2O)c1cc(O)c(O)c(O)c1 [Corilagin]
- Inhibition%(80μM): 101.84% and 101.22%
- inhibition at 80 µM: 101%

SMILES: CC(C)=CCCC1=CC(=O)c2c(O)ccc(O)c2C1=O [Deoxyshikonin]
- Inhibition%(80μM): 88.46% and 84.98%
- inhibition at 80 µM: 82.3%

SMILES: O=C(/C=C/c1ccc(O)c(O)c1)OC[C@H]1O[C@@H](OCCc2ccc(O)c(O)c2)[C@H](O)[C@@H](O)[C@@H]1O [Desrhamnosyl Isoacteoside]
- Inhibition%(80μM): 93.35% and 94.40% and 92.55%

SMILES: CCCCC/C=C\C/C=C\CCCCCCCCCC(=O)O [Eicosadienoic Acid]
- Inhibition%(80μM): 103.14% and 107.18%
- inhibition at 80 µM: 105%

SMILES: CCCCCCCC/C=C/CCCCCCCC(=O)O [Elaidic Acid]
- Inhibition%(80μM): 79.40% and 87.31%
- inhibition at 80 µM: 74.9%

SMILES: CCCCCCCCCCCC1=C(O)C(=O)C=C(O)C1=O [Embelin]
- Inhibition%(80μM): 89.75% and 99.35%
- inhibition at 80 µM: 103%

SMILES: CCCCCCCC/C=C\CCCCCCCCCCCC(=O)O [Erucic Acid]
- Inhibition%(80μM): 99.68% and 100.48%
- inhibition at 80 µM: 101%

SMILES: C[C@@H]1O[C@@H](OC[C@H]2O[C@@H](OCCc3ccc(O)c(O)c3)[C@H](O)[C@@H](O)[C@@H]2OC(=O)/C=C/c2ccc(O)c(O)c2)[C@H](O)[C@H](O)[C@H]1O [Forsythoside A]
- Inhibition%(80μM): 73.60% and 71.69%
- inhibition at 80 µM: 77%

SMILES: C[C@@H]1O[C@@H](OC[C@H]2O[C@@H](OCCc3ccc(O)c(O)c3)[C@H](O)[C@@H](O)[C@@H]2O)[C@H](O)[C@H](O)[C@H]1O [Forsythoside E]
- Inhibition%(80μM): 102.62% and 100.37%
- inhibition at 80 µM: 103%

— publication PMC10222270, “Natural Product-Based Screening for Lead Compounds Targeting SARS CoV-2 M^pro” (Pharmaceuticals, 2023)
